Measured values published in article PMC6364417, “Kinase inhibitor library screening identifies synergistic drug combinations effective in sensitive and resistant melanoma cells” (Journal of Experimental & Clinical Cancer Research : CR, 2019).

Experiments:
Assay in all cases: Kinase inhibitor library screening, PrestoBlue cell viability, 1 or 10 μM, 72 h
501Mel cells (parental) = conditions: for Cell viability in kinase inhibitor library screening, 501Mel Parental, 1μΜ / Cell viability in kinase inhibitor library screening, 501Mel Parental, 10μΜ / cell viability (kinase inhibitor library screening): in %, 501Mel Parental
In short: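 Kinase inhibitors added at two fixed concentrations; 72 h exposure; PrestoBlue readout; % viability vs untreated; n ≥ 2 per line.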

A375 cells (parental) = conditions: for Cell viability in kinase inhibitor library screening, A375 Parental, 10μΜ / Cell viability in kinase inhibitor library screening, A375 Parental, 1μΜ: 72 h
[1] = tested on: IGR37-XP cells (Vemurafenib-resistant); conditions: for Cell viability in kinase inhibitor library screening, IGR37 XP, 10μΜ / Cell viability in kinase inhibitor library screening, IGR37 XP, 1μΜ: 72 h
[2] = tested on: A375-GP cells (Dabrafenib-resistant); conditions: for Cell viability in kinase inhibitor library screening, A375 GP, 1μΜ / Cell viability in kinase inhibitor library screening, A375 GP, 10μΜ: 72 h; for Cell viability in kinase inhibitor library screening, A375 GP, 1μΜ / Cell viability in kinase inhibitor library screening, A375 GP, 10μΜ / cell viability (kinase inhibitor library screening): A375 GP; for cell viability (kinase inhibitor library screening): in %
[3] = tested on: IGR37-GP cells (Dabrafenib-resistant); conditions: for Cell viability in kinase inhibitor library screening, IGR37 GP, 10μΜ / Cell viability in kinase inhibitor library screening, IGR37 GP, 1μΜ: 72 h; for Cell viability in kinase inhibitor library screening, IGR37 GP, 1μΜ / cell viability (kinase inhibitor library screening): in %; for Cell viability in kinase inhibitor library screening, IGR37 GP, 10μΜ / Cell viability in kinase inhibitor library screening, IGR37 GP, 1μΜ / cell viability (kinase inhibitor library screening): IGR37 GP
IGR37 cells (parental) = conditions: for Cell viability in kinase inhibitor library screening, IGR37 Parental, 1μΜ / Cell viability in kinase inhibitor library screening, IGR37 Parental, 10μΜ: 72 h; for Cell viability in kinase inhibitor library screening, IGR37 Parental, 1μΜ / Cell viability in kinase inhibitor library screening, IGR37 Parental, 10μΜ / cell viability (kinase inhibitor library screening): in %, IGR37 Parental
[4] = tested on: 501Mel-GP cells (Dabrafenib-resistant); conditions: for Cell viability in kinase inhibitor library screening, 501Mel GP, 1μΜ / Cell viability in kinase inhibitor library screening, 501Mel GP, 10μΜ / cell viability (kinase inhibitor library screening): in %, 501Mel GP
[5] = tested on: 501Mel-XP cells (Vemurafenib-resistant); conditions: for Cell viability in kinase inhibitor library screening, 501Mel XP, 1μΜ / Cell viability in kinase inhibitor library screening, 501Mel XP, 10μΜ / cell viability (kinase inhibitor library screening): in %, 501Mel XP
[6] = tested on: A375-XP cells (Vemurafenib-resistant); conditions: for Cell viability in kinase inhibitor library screening, A375 XP, 1μΜ / Cell viability in kinase inhibitor library screening, A375 XP, 10μΜ: 72 h

## CC[C@@H]1C(=O)N(C)c2cnc(Nc3ccc(C(=O)N[C@H]4CC[C@H](N5CCN(CC6CC6)CC5)CC4)cc3OC)nc2N1C(C)C [BI6727 (Volasertib)]
501Mel cells (parental); 1μΜ, 72 h
  Cell viability in kinase inhibitor library screening, 501Mel Parental, 1μΜ: 63.2
501Mel cells (parental); 10μΜ, 72 h
  Cell viability in kinase inhibitor library screening, 501Mel Parental, 10μΜ: 1.3
A375 cells (parental); A375 Parental, 10μΜ
  Cell viability in kinase inhibitor library screening, A375 Parental, 10μΜ: 29.8
A375 cells (parental); A375 Parental
  Cell viability in kinase inhibitor library screening, A375 Parental, 1μΜ: 21.7
[1]; IGR37 XP, 10μΜ
  Cell viability in kinase inhibitor library screening, IGR37 XP, 10μΜ: 2.7%
[1]; IGR37 XP, in %
  Cell viability in kinase inhibitor library screening, IGR37 XP, 1μΜ: 65.8
[2]; 1μΜ
  Cell viability in kinase inhibitor library screening, A375 GP, 1μΜ: 22.8
[2]; 10μΜ
  Cell viability in kinase inhibitor library screening, A375 GP, 10μΜ: 28.0
[3]; 10μΜ
  Cell viability in kinase inhibitor library screening, IGR37 GP, 10μΜ: 8.8%
[3]; 1μΜ
  Cell viability in kinase inhibitor library screening, IGR37 GP, 1μΜ: 75.9
IGR37 cells (parental); 1μΜ
  Cell viability in kinase inhibitor library screening, IGR37 Parental, 1μΜ: 36.2
IGR37 cells (parental); 10μΜ
  Cell viability in kinase inhibitor library screening, IGR37 Parental, 10μΜ: 43.0
[4]; 1μΜ, 72 h
  Cell viability in kinase inhibitor library screening, 501Mel GP, 1μΜ: 26.5
[4]; 10μΜ, 72 h
  Cell viability in kinase inhibitor library screening, 501Mel GP, 10μΜ: 0.363
[5]; 1μΜ, 72 h
  Cell viability in kinase inhibitor library screening, 501Mel XP, 1μΜ: 9.9
[5]; 10μΜ, 72 h
  Cell viability in kinase inhibitor library screening, 501Mel XP, 10μΜ: 0.4
[6]; A375 XP
  Cell viability in kinase inhibitor library screening, A375 XP, 1μΜ: 37.1
[6]; A375 XP, 10μΜ
  Cell viability in kinase inhibitor library screening, A375 XP, 10μΜ: 16.8

## CC(C)(C)c1nc(-c2cccc(NS(=O)(=O)c3c(F)cccc3F)c2F)c(-c2ccnc(N)n2)s1 [Dabrafenib (GSK2118436)]
501Mel cells (parental); 1μΜ, 72 h
  Cell viability in kinase inhibitor library screening, 501Mel Parental, 1μΜ: 51.2
501Mel cells (parental); 10μΜ, 72 h
  Cell viability in kinase inhibitor library screening, 501Mel Parental, 10μΜ: 72.8
A375 cells (parental); A375 Parental, 10μΜ
  Cell viability in kinase inhibitor library screening, A375 Parental, 10μΜ: 26.9
A375 cells (parental); A375 Parental
  Cell viability in kinase inhibitor library screening, A375 Parental, 1μΜ: 17.6
[1]; IGR37 XP, 10μΜ
  Cell viability in kinase inhibitor library screening, IGR37 XP, 10μΜ: 78.9%
[1]; IGR37 XP, in %
  Cell viability in kinase inhibitor library screening, IGR37 XP, 1μΜ: 93.2
[2]; 1μΜ
  Cell viability in kinase inhibitor library screening, A375 GP, 1μΜ: 65.8
[2]; 10μΜ
  Cell viability in kinase inhibitor library screening, A375 GP, 10μΜ: 52.9
[3]; 10μΜ
  Cell viability in kinase inhibitor library screening, IGR37 GP, 10μΜ: 97.8%
[3]; 1μΜ
  Cell viability in kinase inhibitor library screening, IGR37 GP, 1μΜ: 94.6
IGR37 cells (parental); 1μΜ
  Cell viability in kinase inhibitor library screening, IGR37 Parental, 1μΜ: 34.2
IGR37 cells (parental); 10μΜ
  Cell viability in kinase inhibitor library screening, IGR37 Parental, 10μΜ: 44.5
[4]; 1μΜ, 72 h
  Cell viability in kinase inhibitor library screening, 501Mel GP, 1μΜ: 96.2
[4]; 10μΜ, 72 h
  Cell viability in kinase inhibitor library screening, 501Mel GP, 10μΜ: 92.9
[5]; 1μΜ, 72 h
  Cell viability in kinase inhibitor library screening, 501Mel XP, 1μΜ: 79.2
[5]; 10μΜ, 72 h
  Cell viability in kinase inhibitor library screening, 501Mel XP, 10μΜ: 97.5
[6]; A375 XP
  Cell viability in kinase inhibitor library screening, A375 XP, 1μΜ: 73.0
[6]; A375 XP, 10μΜ
  Cell viability in kinase inhibitor library screening, A375 XP, 10μΜ: 48.7

## Cc1ccc(Nc2nccc(N(C)c3ccc4c(C)n(C)nc4c3)n2)cc1S(N)(=O)=O.Cl [Pazopanib HCl]
501Mel cells (parental); 1μΜ
  cell viability (kinase inhibitor library screening): 99.1
501Mel cells (parental); 10μΜ
  cell viability (kinase inhibitor library screening): 86.1
A375 cells (parental); A375 Parental, 10μΜ, in %
  cell viability (kinase inhibitor library screening): 71.9
[1]; IGR37 XP, 10μΜ, in %
  cell viability (kinase inhibitor library screening): 65.8
[2]; 1μΜ
  cell viability (kinase inhibitor library screening): 98.9
[2]; 10μΜ
  cell viability (kinase inhibitor library screening): 71.0
[3]; 1μΜ
  cell viability (kinase inhibitor library screening): 83.2
[3]; 10μΜ
  cell viability (kinase inhibitor library screening): 61.1
IGR37 cells (parental); 1μΜ
  cell viability (kinase inhibitor library screening): 96.1
IGR37 cells (parental); 10μΜ
  cell viability (kinase inhibitor library screening): 84.7
[4]; 1μΜ
  cell viability (kinase inhibitor library screening): 95.6
[4]; 10μΜ
  cell viability (kinase inhibitor library screening): 65.3
[5]; 1μΜ
  cell viability (kinase inhibitor library screening): 88.8
[5]; 10μΜ
  cell viability (kinase inhibitor library screening): 48.8
[6]; A375 XP, 10μΜ, in %
  cell viability (kinase inhibitor library screening): 75.2

## COCC(=O)NC/C=C/c1ccc2ncnc(Nc3ccc(Oc4ccc(C)nc4)c(C)c3)c2c1 [CP-724714]
501Mel cells (parental); Homo sapiens, 72 h, read-out: cell viability, 501Mel Parental, 1μΜ
  viability at 1 µM: 105%
501Mel cells (parental); Homo sapiens, 72 h, read-out: cell viability, 501Mel Parental, 10μΜ
  viability at 10 µM: 102%
A375 cells (parental); Homo sapiens, A-375, 72 h, read-out: cell viability, A375 Parental, 1μΜ
  viability at 1 µM: 101%
A375 cells (parental); Homo sapiens, A-375, 72 h, read-out: cell viability, A375 Parental, 10μΜ
  viability at 10 µM: 90.2%
[1]; Homo sapiens, IGR-37, 72 h, read-out: cell viability, IGR37 XP, 1μΜ
  viability at 1 µM: 89.5%
[1]; Homo sapiens, IGR-37, 72 h, read-out: cell viability, IGR37 XP, 10μΜ
  viability at 10 µM: 52.3%
[2]; Homo sapiens, A-375, 72 h, read-out: cell viability, A375 GP, 1μΜ
  viability at 1 µM: 103%
[2]; Homo sapiens, A-375, 72 h, read-out: cell viability, A375 GP, 10μΜ
  viability at 10 µM: 95.4%
[3]; Homo sapiens, IGR-37, 72 h, read-out: cell viability, IGR37 GP, 1μΜ
  viability at 1 µM: 91.8%
[3]; Homo sapiens, IGR-37, 72 h, read-out: cell viability, IGR37 GP, 10μΜ
  viability at 10 µM: 86.1%
IGR37 cells (parental); Homo sapiens, IGR-37, 72 h, read-out: cell viability, IGR37 Parental, 1μΜ
  viability at 1 µM: 101%
IGR37 cells (parental); Homo sapiens, IGR-37, 72 h, read-out: cell viability, IGR37 Parental, 10μΜ
  viability at 10 µM: 98%
[4]; Homo sapiens, 72 h, read-out: cell viability, 501Mel GP, 1μΜ
  viability at 1 µM: 109%
[4]; Homo sapiens, 72 h, read-out: cell viability, 501Mel GP, 10μΜ
  viability at 10 µM: 87.4%
[5]; Homo sapiens, 72 h, read-out: cell viability, 501Mel XP, 1μΜ
  viability at 1 µM: 101%
[5]; Homo sapiens, 72 h, read-out: cell viability, 501Mel XP, 10μΜ
  viability at 10 µM: 77.8%
[6]; Homo sapiens, A-375, 72 h, read-out: cell viability, A375 XP, 1μΜ
  viability at 1 µM: 109%
[6]; Homo sapiens, A-375, 72 h, read-out: cell viability, A375 XP, 10μΜ
  viability at 10 µM: 103%
